Source: patent US11229602B2, “Formulations for treating bladder cancer” (priority 2016, dated 2022)
Several values for one entry are separate records, joined by “and”; a condition that tells them apart may be missing. Equal entries are not always repeated. Where two headings read alike, the source gives them in different places.

Experiments:
[1] = system: human bladder epithelial carcinoma cell-line T24 (ATCC HTB-4); assay: Sulforhodamine B (SRB) assay, T24 cells; assay type: cell-based; settings: 72 h treatment
Description: (§1) A sulforhodamine B (SRB) assay-based approach was employed to determine the inhibitory concentration (IC)50 of paclitaxel formulations PLIP-003, PLIP-006, PLIP-021, and PLIP-023 against the human bladder epithelial carcinoma cell-lines T24 (ATCC® HTB-4™), 5637 (ATCC® HTB-9™) and HT-1376 (ATCC® CRL-1472™). For use in the assays, the paclitaxel formulations were redispersed in normal saline to a concentration of 2-5 mg/mL paclitaxel. The dispersed formulations formed clear solutions. Pure, unformulated, paclitaxel solution ([6 mg/100 μL] in DMSO) was used as a control formulation.
(§2) Cells were seeded onto 96-well plates at a density of 5×10^3 cells/well and cultured for 24 h at 37° C. and 5% CO2. The dispersed paclitaxel formulations and pure drug controls were added to the media of the plated cell cultures. […] Protein-bound SRB was detected by adding 100 μl 10 mM Tris base solution to each well, and allowing 5 to 10 minutes for Tris solution to solubilize SRB. The plates were read using a microplate reader at an absorbance of 565 nm. […]
(§3) Cells were seeded onto 96-well plates at a density of 5×10^3 cells/well and cultured for 24 h at 37° C. and 5% CO2. […] Protein-bound SRB was detected by adding 100 μl 10 mM Tris base solution to each well, and allowing 5 to 10 minutes for Tris solution to solubilize SRB. The plates were read using a microplate reader at an absorbance of 565 nm.

[2] = system: KU-7-GFP human bladder cancer; assay: KU-7-GFP human bladder cancer orthotopic mouse model, intravesical instillation; assay type: in vivo, mice
Description: An orthotopic mouse model was utilized to evaluate a proliposomal formulation of paclitaxel. The bladder cancer cell line KU7/GFP clone 6 was used for these studies. The KU7/GFP clone 6 is stably transfected with the green-fluorescent protein, and these cell lines were used for all in vivo studies. The KU7/GFP clone 6 cell lines are described in Watanabe et al. The cells were grown in modified minimum essential medium supplemented with 10% FCS and incubated at 37° C. in 5% CO2. Tumors generated from KU7/GFP cells were generated […]. The tumors were implanted into the bladder of female mice. […] The foregoing formulations and saline were administered at day 0, day 7, and day 14 post-tumor implantation.
KU-7-GFP human bladder cancer orthotopic MetaMouse® model: The human bladder cancer cell line KU-7 expressing GFP was from the AntiCancer Inc. cell-line bank. The animals were transplanted by intravesical instillation using the KU-7-GFP bladder cancer cells. The animals were anesthetized with a mixture of ketamine, acepromazine and xylazine. The surgical area was sterilized using iodine and alcohol. After proper exposure of the bladder following a lower midline abdominal incision, the bladder was catheterized with a 24-G angiocatheter, drained and injured by a scratch with a needle in the bladder lining. KU-7-GFP (100 μl 2×10^6) cells were instilled into the bladder and a purse string was placed to occlude the urethra in order for the cells to be retained for 1 hour. The bladder was then returned to the abdominal cavity. The incision in the abdominal wall was closed with a 6-0 surgical suture in one layer. The animals were kept under isoflurane anesthesia during surgery. All procedures of the operation described above were performed under a 7× magnification microscope (Olympus). Animals were kept in a barrier facility under HEPA filtration.
On day 7 after tumor cell implantation, fifty animals were randomly divided into five groups (each treatment group contained n=10 mice) on day 7 after tumor implantation. Treatments in all groups for all mice were initiated on the same day, which was considered Study Day 0. Freshly reconstituted formulation (50 μL) was instilled intravesically using a 24 G/¾″ IV catheter, and the urethra was occluded using a purse string knot. The formulation was held in the bladder for a period of 1 h. After 1 h, the purse string was cut open, and the bladder was allowed to void naturally. The same procedure was followed on days 0, 7, 14 […].
In vitro human bladder cancer cell lines (T24, KU7) were used to assess IC50 values. In vivo studies were carried out in nude mice inoculated with KU7-GFP cell-lines. After KU7 bladder tumor inoculation, weekly (×3) intravesical instillations (3 groups: PLIP; PTX/DMSO or PTX/Nab; or saline) were delivered and tumor growth measured. Pharmacokinetic studies were carried out in rat species. A GLP compliant acute-expanded toxicology/toxicokinetics study in rat species was also performed.

[3] = system: human bladder epithelial carcinoma cell-line 5637 (ATCC HTB-9); assay: Sulforhodamine B (SRB) assay, 5637 cells; assay type: cell-based; settings: 72 h treatment
Description: as §1, §2, §3

[4] = Redispersion / dissolution in normal saline; assay type: physicochemical
Description: as §1
A sulforhodamine B (SRB) assay-based approach was employed to determine the inhibitory concentration IC50 of cisplatin formulations PLIC-002 and PLIC-009 against the human bladder carcinoma epithelial cell-lines T24 (ATCC® HTB-4™), 5637 (ATCC® HTB-9™) and HT-1376 (ATCC® CRL-1472™). For use in the assays, the cisplatin formulations were redispersed in normal saline to a concentration 2 mg/mL cisplatin. The redispersed formulations formed clear solutions. Pure cisplatin solution 1 mg/mL in normal saline (unformulated) was used as a control. Higher concentrations of pure cisplatin were not used because cisplatin will not form a clear solution above 1 mg/mL in normal saline.

[5] = system: human bladder epithelial carcinoma cell-line HT-1376 (ATCC CRL-1472); assay: Sulforhodamine B (SRB) assay, HT-1376 cells; assay type: cell-based; settings: HT1376; cisplatin formulations; 72 h treatment
Description: as §1, §2, §3

[6] = 5.0 mg/kg, nude mice KU7-GFP, weekly intravesical instillations
[7] = 5.0 mg/kg, nude mice KU7-GFP, weekly intravesical instillations, * p < 0.05 vs saline

Compound	IC50 ([1]; Homo sapiens, T-24, paclitaxel formulations, read-out: IC50)	Bladder Size [2, 6]	Tumor Size [2, 6]	% Bladder Overtaken by Tumor [2, 7]	% Complete Response [2, 7]	Final tumor area, measured by fluorescent method ([2]; Groups 3 and 4, title says Study Design 2, two weeks, five groups as in Study Design 1 (5 mg/kg once a week), individual mice, listed as PTX in DMSO, 5 mg/kg)	Final tumor area, measured by fluorescent method, mean ([2]; Groups 3 and 4, title says Study Design 2, two weeks, five groups as in Study Design 1 (5 mg/kg once a week), mean)	IC50 ([3]; Homo sapiens, paclitaxel formulations, read-out: IC50)	IC50 ([1]; cisplatin formulations)	highest concentration forming a clear solution in normal saline [4]	IC50 [5]	IC50 ([3]; cisplatin formulations)
CC(=O)O[C@H]1C(=O)[C@@]2(C)[C@H]([C@H](OC(=O)c3ccccc3)[C@]3(O)C[C@H](OC(=O)[C@H](O)[C@@H](NC(=O)c4ccccc4)c4ccccc4)C(C)=C1C3(C)C)[C@]1(OC(C)=O)CO[C@@H]1C[C@@H]2O [Paclitaxel in DMSO, Paclitaxel]	< 0.1 µg/mL	13 mm^2	0.05 mm^2	10%*	25% (1/4)	16.39 mm^2 and 5.37 mm^2 and 15.96 mm^2	12.58 mm^2	< 0.1 µg/mL	–	–	–	–
N.N.[Cl][Pt][Cl] [Pure drug, Cis-diamminedichloroplatinum(II)]	–	–	–	–	–	–	–	–	0.788 µg/mL	≤ 1 mg/mL	1.11 µg/mL	0.441 µg/mL
